# According to US10221139B2, “Inhibitors of histone demethylases” (Gilead Sciences, Inc., priority 2012, dated 2019):
# Tests used:
# JMJD1B (KDM3B) = biological target: T1, JMJD1B (KDM3B) (Homo sapiens, UniProt Q7LBC6); experiment: Histone lysine demethylase AlphaLISA assay, JMJD1B; format: biochemical; details: substrate BK9M2
# T1 construct: 842-1761; host or cells: Bac (baculovirus)
# T1 sequence (Q7LBC6 842-1761): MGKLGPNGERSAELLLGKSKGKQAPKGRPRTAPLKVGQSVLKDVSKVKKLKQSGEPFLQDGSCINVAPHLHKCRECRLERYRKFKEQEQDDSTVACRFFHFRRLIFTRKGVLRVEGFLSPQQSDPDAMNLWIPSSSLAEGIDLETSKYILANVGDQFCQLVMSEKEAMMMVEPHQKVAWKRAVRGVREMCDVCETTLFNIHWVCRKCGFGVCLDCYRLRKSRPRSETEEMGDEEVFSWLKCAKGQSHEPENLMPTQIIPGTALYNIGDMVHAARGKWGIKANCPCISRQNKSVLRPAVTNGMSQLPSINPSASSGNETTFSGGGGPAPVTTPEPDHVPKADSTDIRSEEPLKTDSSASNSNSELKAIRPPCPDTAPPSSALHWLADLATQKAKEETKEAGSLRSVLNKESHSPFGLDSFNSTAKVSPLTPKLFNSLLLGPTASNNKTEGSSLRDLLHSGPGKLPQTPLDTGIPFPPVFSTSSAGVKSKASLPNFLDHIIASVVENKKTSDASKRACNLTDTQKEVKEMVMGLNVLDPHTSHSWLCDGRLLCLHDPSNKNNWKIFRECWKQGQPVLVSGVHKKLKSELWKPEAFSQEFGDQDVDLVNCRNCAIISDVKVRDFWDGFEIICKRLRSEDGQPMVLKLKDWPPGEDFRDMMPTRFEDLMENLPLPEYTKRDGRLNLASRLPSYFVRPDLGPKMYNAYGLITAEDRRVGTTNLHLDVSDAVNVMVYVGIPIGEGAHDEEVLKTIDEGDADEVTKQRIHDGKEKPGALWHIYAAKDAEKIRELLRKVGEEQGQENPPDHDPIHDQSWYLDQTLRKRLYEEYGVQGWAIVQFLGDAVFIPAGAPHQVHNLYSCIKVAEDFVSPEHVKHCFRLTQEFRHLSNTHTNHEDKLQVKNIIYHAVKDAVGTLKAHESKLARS
# Procedure: (§1) Example 2: Histone Lysine Demethylase AlphaLISA Assays for IC50 Value Determination
# (§2) Assays are performed analogously to the protocol described by Perkin Elmer (Roy et al. Perkin Elmer Technical Note: AlphaLISA #12, April 2011).
# (§3) Enzymes are dissolved in enzyme buffer and incubated for 10 min before 5 μL is added to 5 μL 3% DMSO solutions of compounds in enzyme buffer. Incubated for another 10 minutes, before 5 μL substrate solution is added and the reaction mixture is incubated at room temperature for the given period. 10 μL acceptor beads, suspended at given dilutions in Epigenetic Buffer (Perkin Elmer AL008) from stock, are added and the suspension is incubated 60 minutes in the dark at room temperature, before 10 μL suspension (at the given dilutions in Epigenetic Buffer) of streptavidin donor beads (Perkin Elmer 6760002) in Epigenetic Buffer is added. After incubation at room temperature in the dark the plates are read. Reaction conditions are seen in Table 2b.
# FBXL10 (KDM2B) = biological target: T2, FBXL10 (KDM2B) (Homo sapiens, UniProt Q8NHM5); experiment: Histone lysine demethylase AlphaLISA assay, FBXL10; format: biochemical; details: substrate BH3K36M2
# T2 construct: 1-650; purchased BPS, Bioscience, US; host or cells: Bac (baculovirus)
# T2 sequence (Q8NHM5 1-650): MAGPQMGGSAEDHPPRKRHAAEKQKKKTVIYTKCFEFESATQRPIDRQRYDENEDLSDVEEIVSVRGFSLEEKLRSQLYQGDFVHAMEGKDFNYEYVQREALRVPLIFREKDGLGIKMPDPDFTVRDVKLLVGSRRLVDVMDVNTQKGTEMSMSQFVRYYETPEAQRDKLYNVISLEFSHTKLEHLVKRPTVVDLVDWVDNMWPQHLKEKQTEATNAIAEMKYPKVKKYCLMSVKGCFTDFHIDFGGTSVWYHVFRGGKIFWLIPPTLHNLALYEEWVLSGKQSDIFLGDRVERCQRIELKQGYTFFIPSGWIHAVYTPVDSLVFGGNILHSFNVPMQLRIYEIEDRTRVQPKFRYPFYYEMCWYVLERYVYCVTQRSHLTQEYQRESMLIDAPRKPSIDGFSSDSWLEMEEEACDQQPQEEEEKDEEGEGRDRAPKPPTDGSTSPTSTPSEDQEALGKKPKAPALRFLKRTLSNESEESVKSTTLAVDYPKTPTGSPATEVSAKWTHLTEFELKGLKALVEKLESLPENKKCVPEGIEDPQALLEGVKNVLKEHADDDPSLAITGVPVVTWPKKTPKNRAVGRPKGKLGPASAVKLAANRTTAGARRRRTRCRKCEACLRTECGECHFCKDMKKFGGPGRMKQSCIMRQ
# Procedure: as §1, §2, §3
# PHF8 (KDM7) = biological target: T3, PHF8 (KDM7) (Homo sapiens, UniProt Q9UPP1); experiment: Histone lysine demethylase AlphaLISA assay, PHF8; format: biochemical; details: substrate BK9M2
# T3 construct: KDM7 (PHF8); BRIC; 1-1322; Bac
# Procedure: as §1, §2, §3
# JMJD2B (KDM4B) = biological target: T4, JMJD2B (KDM4B) (Homo sapiens, UniProt O94953); experiment: Histone lysine demethylase AlphaLISA assay, JMJD2B; format: biochemical; details: substrate BK9M3, read-out: JMUD2B IC50
# T4 construct: 2-500; purchased BPS; host or cells: Bac (baculovirus)
# T4 sequence (O94953 2-500): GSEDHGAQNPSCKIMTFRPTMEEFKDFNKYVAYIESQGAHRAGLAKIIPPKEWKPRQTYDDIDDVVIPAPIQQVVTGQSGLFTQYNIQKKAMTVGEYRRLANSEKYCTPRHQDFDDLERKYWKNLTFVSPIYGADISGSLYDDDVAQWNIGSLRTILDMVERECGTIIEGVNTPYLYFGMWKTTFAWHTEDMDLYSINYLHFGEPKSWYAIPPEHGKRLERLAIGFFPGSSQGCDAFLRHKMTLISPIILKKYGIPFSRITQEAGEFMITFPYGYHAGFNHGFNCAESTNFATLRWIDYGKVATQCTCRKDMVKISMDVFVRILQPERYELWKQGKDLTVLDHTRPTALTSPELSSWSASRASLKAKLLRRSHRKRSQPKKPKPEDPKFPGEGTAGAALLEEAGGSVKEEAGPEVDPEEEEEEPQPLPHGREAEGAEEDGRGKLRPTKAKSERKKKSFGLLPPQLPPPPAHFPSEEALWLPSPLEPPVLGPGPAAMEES
# Procedure: as §1, §2, §3
# JMJD2A (KDM4A) [1] = biological target: T5, JMJD2A (KDM4A) (Homo sapiens, UniProt O75164); experiment: Histone lysine demethylase AlphaLISA assay, JMJD2A; format: biochemical; details: substrate BK9M3
# T5 construct: 1-350; purchased BPS, Bioscience, US; host or cells: E. coli
# T5 sequence (O75164 1-350): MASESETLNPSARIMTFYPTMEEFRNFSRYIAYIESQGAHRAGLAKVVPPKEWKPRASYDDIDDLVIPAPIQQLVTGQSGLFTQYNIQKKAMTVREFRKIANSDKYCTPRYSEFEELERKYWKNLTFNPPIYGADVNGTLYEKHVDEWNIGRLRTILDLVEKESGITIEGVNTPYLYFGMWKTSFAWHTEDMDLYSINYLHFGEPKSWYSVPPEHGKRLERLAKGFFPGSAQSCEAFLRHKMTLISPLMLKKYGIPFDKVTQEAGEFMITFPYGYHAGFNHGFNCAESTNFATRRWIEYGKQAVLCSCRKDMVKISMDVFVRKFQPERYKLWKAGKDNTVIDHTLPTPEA
# Procedure: as §1, §2, §3
# JARID1C (KDM5C) = biological target: T6, JARID1C (KDM5C) (Homo sapiens, UniProt P41229); experiment: Histone lysine demethylase AlphaLISA assay, JARID1C; format: biochemical; details: substrate H3K4M3B
# T6 construct: 2-1560; purchased BPS; host or cells: Bac (baculovirus)
# Procedure: as §1, §2, §3
# GASC1 (KDM4C, JMJD2C) = biological target: T7, GASC1 (KDM4C, JMJD2C) (Homo sapiens, UniProt Q9H3R0); experiment: Histone lysine demethylase AlphaLISA assay, GASC1; format: biochemical; details: substrate BK9M3
# T7 construct: 1-349; host or cells: E. coli
# T7 sequence (Q9H3R0 1-349): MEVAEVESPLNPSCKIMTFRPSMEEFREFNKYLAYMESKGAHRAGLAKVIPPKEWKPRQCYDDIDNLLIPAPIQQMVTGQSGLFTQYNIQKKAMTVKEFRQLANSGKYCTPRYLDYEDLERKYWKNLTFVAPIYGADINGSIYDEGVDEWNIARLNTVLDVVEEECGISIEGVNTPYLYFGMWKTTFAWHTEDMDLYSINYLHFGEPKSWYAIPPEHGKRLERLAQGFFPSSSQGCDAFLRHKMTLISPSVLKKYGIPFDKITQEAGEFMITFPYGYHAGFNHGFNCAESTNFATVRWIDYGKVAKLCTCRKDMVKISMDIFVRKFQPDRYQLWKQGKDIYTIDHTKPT
# Method in brief: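 Per-enzyme reaction conditions apply; each enzyme sees compound for 10 min ahead of substrate addition. Bead-based AlphaLISA detection at room temperature, protected from light, gives the IC50.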
# JMJD2A (KDM4A) [2] = biological target: T8, JMJD2A (KDM4A) (Homo sapiens, UniProt O75164); experiment: Immunofluorescence assay in U2OS cells transfected with pCMVHA JMJD2A (H3K9me3 mark); format: cell-based; details: 20 hours
# T8 construct: Full length; host or cells: U2OS
# T8 sequence (O75164 1-1064): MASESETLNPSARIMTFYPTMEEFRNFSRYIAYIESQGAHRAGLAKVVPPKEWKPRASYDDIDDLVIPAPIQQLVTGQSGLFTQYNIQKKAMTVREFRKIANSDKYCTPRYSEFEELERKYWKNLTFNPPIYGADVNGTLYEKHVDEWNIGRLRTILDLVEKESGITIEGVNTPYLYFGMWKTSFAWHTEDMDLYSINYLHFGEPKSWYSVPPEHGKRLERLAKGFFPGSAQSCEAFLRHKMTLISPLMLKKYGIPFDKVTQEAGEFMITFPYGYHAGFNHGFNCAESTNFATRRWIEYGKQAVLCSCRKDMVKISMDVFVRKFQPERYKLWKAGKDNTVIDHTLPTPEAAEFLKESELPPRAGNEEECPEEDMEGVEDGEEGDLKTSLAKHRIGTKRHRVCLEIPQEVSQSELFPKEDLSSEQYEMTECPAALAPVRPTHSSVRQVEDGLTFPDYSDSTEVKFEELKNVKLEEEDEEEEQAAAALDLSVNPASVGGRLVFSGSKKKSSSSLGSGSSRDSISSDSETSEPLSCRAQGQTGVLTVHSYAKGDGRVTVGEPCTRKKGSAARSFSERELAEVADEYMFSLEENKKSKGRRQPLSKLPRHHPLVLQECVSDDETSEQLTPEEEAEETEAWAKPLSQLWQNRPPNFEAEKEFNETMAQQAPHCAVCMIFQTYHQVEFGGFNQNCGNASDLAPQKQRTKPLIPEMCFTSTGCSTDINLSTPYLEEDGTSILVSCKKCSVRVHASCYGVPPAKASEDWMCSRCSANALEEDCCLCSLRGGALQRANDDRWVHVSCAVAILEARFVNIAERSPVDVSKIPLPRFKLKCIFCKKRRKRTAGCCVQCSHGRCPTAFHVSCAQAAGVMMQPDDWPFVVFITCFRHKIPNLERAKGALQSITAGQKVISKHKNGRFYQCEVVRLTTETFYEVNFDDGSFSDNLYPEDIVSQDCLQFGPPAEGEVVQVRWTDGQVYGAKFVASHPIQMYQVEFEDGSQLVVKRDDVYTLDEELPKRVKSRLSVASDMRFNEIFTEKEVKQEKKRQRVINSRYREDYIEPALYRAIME
# Procedure: U2OS cells were seeded 24 hours before transfection. Transfection was performed with Fugene HD transfection reagent as recommended by the manufacturer. 6 hours after transfection, the cells were harvested and seeded into multi well plates into media containing compound. The media used was DMEM containing 5% FBS and pen/strep. 20 hours after incubation of cells with compounds, the cells were washed once in PBS, harvested by fixation with formaldehyde 4% aqueous solution, and washed 2 times in PBS. Subsequently, the cells were permeabilized in PBS with 0.2% Triton X-100 for 10 min at room temperature. Blocking was performed in PBS with 0.2% Triton X-100 and 5% FBS for 45 min at room temperature. The cells were incubated with primary antibodies diluted 1 μg/ml in blocking solution over night at 4° C. The primary antibodies used in the assays were HA.11 (Covance, MMS-101P) and the antibody detecting the mark specified in the Table 6 below. After incubation with primary antibodies, the cells were washed 3 times with PBS, incubated with secondary antibodies diluted 1:1000 (Alexa fluor 594 goat anti rabbit IgG, Invitrogen, A11012; Alexa flour 488 donkey anti mouse IgG, Invitrogen, A21202) and Hoechst, 20 μg/ml (Sigma, 33342) in blocking solution, and washed again 3 times with PBS. Finally, PBS was added and high throughput imaging and analysis were performed by an IN Cell Analyzer 1000 (GE Healthcare). The robot software analyzed individual cells and divided these into HA^+ (transfected cells) and HA^− (non-transfected cells). The IC50 values in Table 7 below were based on an average measure of the staining of the mark specified in the Table 6 below in the transfected cells.
# T3 sequence (Q9UPP1 37-477 limits assumed): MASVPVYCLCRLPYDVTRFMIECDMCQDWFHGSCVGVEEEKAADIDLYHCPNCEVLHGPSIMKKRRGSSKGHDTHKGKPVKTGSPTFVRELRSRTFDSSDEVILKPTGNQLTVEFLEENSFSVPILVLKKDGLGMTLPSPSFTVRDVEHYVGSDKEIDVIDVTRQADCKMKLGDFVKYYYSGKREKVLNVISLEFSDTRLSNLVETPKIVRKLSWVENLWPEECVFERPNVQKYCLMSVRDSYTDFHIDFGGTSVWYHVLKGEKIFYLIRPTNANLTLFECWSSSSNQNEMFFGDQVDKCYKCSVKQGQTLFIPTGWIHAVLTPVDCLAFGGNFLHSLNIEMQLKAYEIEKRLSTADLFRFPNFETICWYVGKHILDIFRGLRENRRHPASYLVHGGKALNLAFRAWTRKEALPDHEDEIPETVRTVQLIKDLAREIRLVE
# T6 sequence (P41229 2-1560): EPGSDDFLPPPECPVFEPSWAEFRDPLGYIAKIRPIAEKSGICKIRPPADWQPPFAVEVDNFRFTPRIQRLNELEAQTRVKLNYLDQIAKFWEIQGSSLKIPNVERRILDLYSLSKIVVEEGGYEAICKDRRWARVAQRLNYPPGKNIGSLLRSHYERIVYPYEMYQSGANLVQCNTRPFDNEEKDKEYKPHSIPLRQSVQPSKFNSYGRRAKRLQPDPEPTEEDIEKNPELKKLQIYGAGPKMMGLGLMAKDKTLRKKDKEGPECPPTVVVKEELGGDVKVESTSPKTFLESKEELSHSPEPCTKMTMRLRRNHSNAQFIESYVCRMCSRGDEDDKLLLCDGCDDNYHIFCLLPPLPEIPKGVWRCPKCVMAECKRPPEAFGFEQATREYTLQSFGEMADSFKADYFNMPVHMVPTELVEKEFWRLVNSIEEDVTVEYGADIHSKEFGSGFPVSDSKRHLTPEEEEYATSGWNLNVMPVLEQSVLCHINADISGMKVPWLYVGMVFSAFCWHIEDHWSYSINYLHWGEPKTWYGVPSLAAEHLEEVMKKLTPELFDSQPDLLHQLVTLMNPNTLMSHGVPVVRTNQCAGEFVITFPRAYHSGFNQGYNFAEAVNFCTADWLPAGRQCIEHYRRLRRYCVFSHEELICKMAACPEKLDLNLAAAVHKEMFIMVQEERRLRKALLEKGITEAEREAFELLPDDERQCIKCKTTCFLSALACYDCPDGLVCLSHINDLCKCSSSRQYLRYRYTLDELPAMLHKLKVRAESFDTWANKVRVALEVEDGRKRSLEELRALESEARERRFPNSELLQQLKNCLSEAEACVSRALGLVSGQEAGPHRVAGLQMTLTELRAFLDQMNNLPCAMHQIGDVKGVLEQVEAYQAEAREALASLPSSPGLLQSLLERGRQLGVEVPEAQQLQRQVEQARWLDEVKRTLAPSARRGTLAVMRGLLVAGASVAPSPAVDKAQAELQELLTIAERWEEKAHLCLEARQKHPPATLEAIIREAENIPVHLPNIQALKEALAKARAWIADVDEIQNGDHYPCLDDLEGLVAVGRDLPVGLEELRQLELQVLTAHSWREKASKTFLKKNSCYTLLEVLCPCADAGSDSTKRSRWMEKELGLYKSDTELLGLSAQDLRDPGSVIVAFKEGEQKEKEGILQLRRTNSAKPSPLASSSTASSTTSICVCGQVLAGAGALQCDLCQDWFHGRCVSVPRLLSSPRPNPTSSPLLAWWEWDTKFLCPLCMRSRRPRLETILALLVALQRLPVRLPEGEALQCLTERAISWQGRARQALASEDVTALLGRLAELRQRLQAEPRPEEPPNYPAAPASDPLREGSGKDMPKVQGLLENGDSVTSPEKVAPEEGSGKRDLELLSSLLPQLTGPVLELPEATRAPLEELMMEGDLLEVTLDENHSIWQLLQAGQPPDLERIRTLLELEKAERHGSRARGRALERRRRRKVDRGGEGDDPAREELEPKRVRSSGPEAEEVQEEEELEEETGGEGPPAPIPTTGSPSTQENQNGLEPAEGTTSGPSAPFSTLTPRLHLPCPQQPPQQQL
IC50 (JMJD1B (KDM3B)) [nM],IC50 (FBXL10 (KDM2B)) [nM],IC50 (PHF8 (KDM7)) [nM],IC50 (JMJD2B (KDM4B)) [nM],IC50 (JMJD2A (KDM4A) [1]) [nM],IC50 (JARID1C (KDM5C)) [nM],"IC50 (GASC1 (KDM4C, JMJD2C)) [nM]",IC50 (JMJD2A (KDM4A) [2]) [nM],Compound
≥ 1000,< 100,100 to 1000,< 100,< 100,< 100,< 100,,"CN(CCCCN(Cc1ccccc1)C1CC1)C(=O)CNCc1cc(C(=O)O)ccn1 [#44, 2-({[({4-[benzyl(cyclopropyl)amino]butyl}(methyl)carbamoyl)methyl]amino}methyl)pyridine-4-carboxylic acid]"
,,,,,,,1000 to 50000,"CSCCNCc1cc(C(=O)O)ccn1 [drawing 304, 2-({[2-(methylsulfanyl)ethyl]amino}methyl)pyridine-4-carboxylic acid]"
